Experimental data as given in US7319094B2, “Increased and sustained in vivo gene expression using a nucleic acid, histone and amphipathic compound composition” (Rhode Island Hospital, priority 2001, dated 2008).
“Also recorded” adds a separate entry of the source.

Tests used:
Assay type in all cases: cell-based, human
[1] = test system: PNET2 cells induced to express AD7c-NTP; assay: Crystal violet viability assay; conditions: 3 mM IPTG-induced AD7c-NTP; relative to un-induced FCS-stimulated and IPTG-induced NGF or PDGF stimulated cultures
Method: To examine the effects of different growth factors on AD7c-NTP expression (and over-expression), the cells were serum-starved for 16 hours, after which IPTG (1-5 mM) was added to the medium. Four hours later, the cells were stimulated with insulin (50 nM), IGF-1 (5 ng/ml), NGF ([…]), or platelet-derived growth factor (PDGF; 5 ng/ml) for 24-72 hours. The cells were analyzed for morphological changes, viability, AD7c-NTP immunoreactivity, and expression of pro-apoptosis genes, survival genes, and phospho-tau.
Viability was measured by a standard crystal violet assay. Crystal violet dye labels only viable cells. The assays were performed with cells seeded into 96-well plates at a density of 2×10^4 cells/well. The absorbances were measured using a Spectracount plate reader (Packard, Meriden, Conn.). The crystal violet absorbances increased linearly with cell density between 10^4 and 5×10^5 cells/well.
Cells were serum-starved for 24 hours. However, since several hours of IPTG stimulation were required to induce AD7c-NTP gene expression or CAT activity, IPTG (3 mM) was added to the cultures after 16 hours of serum-starvation, i.e. 8 hours prior to growth factor stimulation. […]
Increased cell loss associated with insulin-stimulation and AD7c-NTP over-expression Cell viability was quantified using the microculture Crystal violet assay with cells seeded into 96-well plates. […]

phospho-JNK = assay: Growth factor stimulated phospho-JNK, Western blot; conditions: 5-30 min stimulation
From the text: (§1) Standard Western blot assays wew used to measure cellular levels of p53, Bcl-2, p21/Waf1, phospho-tau, tau, c-fos, NTP, and activated (phosphorylated) forms of Erk mitogen activated protein (MAP) kinase, amino-terminal c-jun-activated kinase (pJNK), and p38/HOG1. Immunoprecipitation followed by Western blot analysis was used to measure p85 subunit associated with IRS1. For Western blot analysis of p53 Bcl-2, phospho-tau, tau, c-fos, and NTP, the cells were lysed in ice cold radioimmunoprecipitation assay (RIPA) buffer supplemented with protease and phosphatase inhibitors. For the immunoprecipitation studies, Western blot analysis of phospho-Erk, pJNK, and p38, and the PI3 kinase assays, the cells were harvested in Triton lysis buffer supplemented with protease and phosphatase inhibitors. Protein concentrations were measured using the BCA assay (Pierce, Rockford, Ill.). Samples containing 60 μg of protein were fractionated by sodium dodecyl sulfate polyacrylamide gel electrophoresis (SDS-PAGE), then transferred to PVDF membranes, and analyzed by Western immunoblotting. Immunoreactivity was detected with horseradish peroxidase conjugated secondary IgG and PicoWest enhanced chemiluminescence reagents (Pierce Chemical Company, Rockford, Ill.). CAT activity was measured using known methods.
The potential mechanisms by which the differential effects of insulin, IGF1 and PDGF might occur were explored by examining pathways, which mediate PNET2 neuronal apoptosis and neuritic sprouting. […] Western blot analysis was performed with cell lysates obtained from cultures stimulated with insulin, IGF1, or PDGF for 0-30 minutes or 24 hours with equivalent protein loading (60 μg/sample). The membranes were probed using antibodies to Erk, phospho-Erk, Jun, and phospho-JNK. […] In contrast, after 24 hours of AD7c-NTP gene induction and growth factor stimulation, high levels of phospho-Erk MAPK were detected in the IGF-1 and PDGF-stimulated cultures, but not in the serum-starved or insulin-stimulated cultures. […] In contrast, the levels of c-fos transcription factor were equally expressed after 24 hours IPTG induction of AD7c-NTP expression and either serum starvation or stimulation with insulin, IGF1 or PDGF.

Bcl-2 = Bcl-2 expression, Western blot / MICE assay; conditions: PNET2 cells induced to express AD7c-NTP, growth factor stimulated
From the text: as §1
The MICE assay is known in the art (e.g., as described by de la Monte et al., 1999, Biotechniques 26:107301076). The assay is a rapid and sensitive method for quantifying immunoreactivity in 96-well micro-cultures and combines the advantages of the enzyme-linked immunosorbant assay with immunocytochemical staining to permit sensitive in situ quantification of protein expression with values normalized to cell density. […] Immunoreactivity was detected using horseradish peroxidase conjugated secondary antibody (Pierce, Rockford, Ill.) and the TMB soluble peroxidase substrate (Pierce, Rockford, Ill.). Absorbances were measured at 450 nm using a Spectracount plate reader. […]

phospho-tau = phospho-tau expression, Western blot / MICE assay; conditions: PNET2 cells induced to express AD7c-NTP; relative to PDGF-stimulated cultures
From the text: as §1, with “For the immunoprecipitation studies, Western blot analysis of phospho-Erk, pJNK, and p38, and the PI3 kinase assays, the cells were harvested in Triton lysis buffer supplemented with protease and phosphatase inhibitors.” left out
The MICE assay is known in the art (e.g., as described by de la Monte et al., 1999, Biotechniques 26:107301076). […] Immunoreactivity was detected using horseradish peroxidase conjugated secondary antibody (Pierce, Rockford, Ill.) and the TMB soluble peroxidase substrate (Pierce, Rockford, Ill.). […]

## insulin: Human insulin purchased from Novagen
[1]
  cell density (crystal violet): significantly reduced cell densities
phospho-JNK
  phospho-JNK level, short-term stimulation: sharply increased and sustained elevations
Bcl-2
  Bcl-2 level: virtually undetectable Bcl-2 expression; also recorded: reduced levels
phospho-tau
  phospho-tau level: increased levels
